Tests used:
[1] = tested on: Rattus norvegicus; assay: Chronic effect on parathyroid hormone in overnight fasted adenine diet-induced chronic kidney disease Wistar rat model plasma assessed as reduction in plasma PTH level at 3 mg/kg, po qd measured after 27 days of post treatment by sandwich ELISA analysis; type: functional; parameters: scale not given: the % may be the effect or the level left; details: time 27 day
[2] = molecular target: T1, 5-hydroxytryptamine receptor 1A (Homo sapiens) (UniProt P08908); assay: Inhibition of human recombinant 5-HT1A receptor at 10 uM relative to control
T1 sequence (whole entry): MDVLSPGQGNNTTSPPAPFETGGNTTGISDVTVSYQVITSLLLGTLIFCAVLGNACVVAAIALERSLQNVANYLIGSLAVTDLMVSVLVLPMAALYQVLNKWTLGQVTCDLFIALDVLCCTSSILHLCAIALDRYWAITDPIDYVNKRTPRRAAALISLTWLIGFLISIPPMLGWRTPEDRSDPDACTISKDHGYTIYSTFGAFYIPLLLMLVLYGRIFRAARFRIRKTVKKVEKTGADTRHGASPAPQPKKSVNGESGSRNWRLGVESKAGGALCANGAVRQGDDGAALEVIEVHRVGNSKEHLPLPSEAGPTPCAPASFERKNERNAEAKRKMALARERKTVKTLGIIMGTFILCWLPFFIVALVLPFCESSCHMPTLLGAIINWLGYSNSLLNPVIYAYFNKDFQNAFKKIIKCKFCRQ

[3] = Effect on parathyroid hormone in overnight fasted Sprague-Dawley rat assessed as reduction in plasma PTH level at 3 mg/kg, po measured after 4 hrs of post treatment by sandwich ELISA analysis; type: functional; parameters: scale not given: the % may be the effect or the level left
[4] = Drug excretion in BALB/c mouse assessed as drug recovery in feces at 10 mg/kg, po; type: ADME, organism-based; details: faeces, read-out: Drug recovery
[5] = Chemical stability of the compound at pH 9 measured after 0.5 to 4 hrs; type: physicochemical; details: buffer, time 0.5-4 hrs
[6] = Metabolic stability in mouse liver S9 fraction measured upto 60 mins by LC-MS/MS method; type: ADME, subcellular; details: read-out: Stability
[7] = Toxicity in rat assessed as maximum tolerated dose; details: in vivo
[8] = Kinetic solubility of compound in SGF upto 500 uM measured after 16 hrs under shaking condition by UV-visible method; type: physicochemical; details: read-out: Kinetic_solubility
[9] = tested on: Rattus norvegicus; assay: Subchronic effect on parathyroid hormone in overnight fasted adenine diet-induced chronic kidney disease Wistar rat model plasma assessed as reduction in plasma PTH level at 0.1 mg/kg, po qd measured after 27 days of post treatment by sandwich ELISA analysis; type: functional; parameters: scale not given: the % may be the effect or the level left; details: time 27 day
[10] = molecular target: T2, Extracellular calcium-sensing receptor (Homo sapiens, UniProt P41180); assay: Agonist activity at human CaSR expresssed in HEK293 cells in presence of glucose by Fluo4NW dye based FLIPR assay; type: functional, cell-based; details: read-out: EC50
T2 sequence (P41180 whole entry): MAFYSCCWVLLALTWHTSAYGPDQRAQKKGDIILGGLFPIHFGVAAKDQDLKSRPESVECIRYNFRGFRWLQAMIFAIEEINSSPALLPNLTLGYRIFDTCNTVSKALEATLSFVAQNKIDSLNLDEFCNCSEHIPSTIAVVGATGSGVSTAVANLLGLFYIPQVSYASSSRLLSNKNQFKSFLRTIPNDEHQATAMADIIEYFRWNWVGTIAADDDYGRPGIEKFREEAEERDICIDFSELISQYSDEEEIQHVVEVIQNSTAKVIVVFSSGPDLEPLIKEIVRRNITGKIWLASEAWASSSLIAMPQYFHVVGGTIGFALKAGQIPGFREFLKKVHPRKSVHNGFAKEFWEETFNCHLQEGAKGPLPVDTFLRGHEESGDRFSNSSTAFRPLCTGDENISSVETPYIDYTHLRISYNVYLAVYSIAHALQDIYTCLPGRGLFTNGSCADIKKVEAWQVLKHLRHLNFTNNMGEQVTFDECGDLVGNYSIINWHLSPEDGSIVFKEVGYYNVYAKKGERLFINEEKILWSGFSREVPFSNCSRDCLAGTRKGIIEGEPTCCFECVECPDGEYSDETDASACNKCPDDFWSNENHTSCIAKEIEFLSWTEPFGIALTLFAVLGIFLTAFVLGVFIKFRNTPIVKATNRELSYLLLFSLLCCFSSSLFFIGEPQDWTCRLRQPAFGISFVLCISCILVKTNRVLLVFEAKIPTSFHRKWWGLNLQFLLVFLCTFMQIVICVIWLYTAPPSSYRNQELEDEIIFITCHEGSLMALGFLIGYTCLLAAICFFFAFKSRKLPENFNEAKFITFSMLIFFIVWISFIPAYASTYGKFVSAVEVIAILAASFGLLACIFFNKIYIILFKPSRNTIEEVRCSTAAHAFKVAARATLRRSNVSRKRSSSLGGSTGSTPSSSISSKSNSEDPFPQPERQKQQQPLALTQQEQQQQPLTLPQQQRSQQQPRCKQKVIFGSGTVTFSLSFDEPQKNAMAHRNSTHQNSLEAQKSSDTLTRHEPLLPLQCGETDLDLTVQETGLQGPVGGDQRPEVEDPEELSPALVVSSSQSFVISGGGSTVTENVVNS

[11] = tested on: Rattus norvegicus; assay: Acute effect on parathyroid hormone in overnight fasted adenine diet-induced chronic kidney disease Wistar rat model assessed as reduction in plasma PTH level at 1 mg/kg, po measured after 2 hrs of post treatment by sandwich ELISA analysis; type: functional; parameters: scale not given: the % may be the effect or the level left
[12] = Cmax in human at 25 mg/kg, po administered as multiple dose on day 8; type: ADME, organism-based; parameters: dose 25 mg/kg, route po; details: in vivo
[13] = molecular target: T3, Adenosine receptor A1 (Homo sapiens) (UniProt P30542); assay: Inhibition of human recombinant A1 receptor at 10 uM relative to control
T3 sequence (whole entry): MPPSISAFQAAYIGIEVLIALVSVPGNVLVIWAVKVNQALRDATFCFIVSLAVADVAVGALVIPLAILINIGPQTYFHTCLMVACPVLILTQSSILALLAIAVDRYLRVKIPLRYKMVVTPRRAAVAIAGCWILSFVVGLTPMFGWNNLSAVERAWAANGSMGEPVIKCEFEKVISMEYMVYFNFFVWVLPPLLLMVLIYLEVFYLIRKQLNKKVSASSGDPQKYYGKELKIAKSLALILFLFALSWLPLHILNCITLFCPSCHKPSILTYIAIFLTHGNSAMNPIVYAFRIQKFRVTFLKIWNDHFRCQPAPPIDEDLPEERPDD

Cc1ccc([C@@H]2C[C@H](CN[C@H](C)c3cccc4ccccc34)Oc3ccccc32)cc1C(=O)O.Cl
Activity [1]: 83% | inhibition [2]: > 50% | Activity [3]: 74% | dose excreted [4]: 23% | Stability [5]: Stable | remaining at 1 h [6]: > 80% | MTD [7]: 1000 mg/kg | solubility kinetic at 16 h, 500 µM [8]: > 200 µM | Activity [9]: 62% | EC50 [10]: 6.4 nM | Activity [11]: 95% | Cmax [12]: 463 ng/mL | inhibition [13]: > 50%
